Source: PubChem BioAssay AID248 (DTP/NCI, 2004)
Inconclusive results and toxic doses are left out. Cut-off read from the data, not from the text of the source: active = T/C of 150% or more; inactive = T/C below 125%.

Tested on: L1210 leukemia ip in BDF1 mice, survival T/C
Test: NCI In Vivo Anticancer Drug Screen. Data for tumor model L1210 Leukemia (intraperitoneal) in B6D2F1 (BDF1) mice
Settings: endpoint: mean survival time, higher = longer survival
Procedure, shortened: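 Antitumor effect is assessed in tumor-bearing animals. Survival in the compound arm is compared with a vehicle-dosed control arm and expressed as their quotient.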

[1] = dose: 100.0 mg/kg/injection, schedule: Q04DX003 (ip), vehicle: saline with Tween-80
[2] = dose: 200.0 mg/kg/injection, schedule: Q04DX003 (ip), vehicle: saline with Tween-80
[3] = dose: 400.0 mg/kg/injection, schedule: Q04DX003 (ip), vehicle: saline with Tween-80
[4] = dose: 100.0 mg/kg/injection, schedule: Q01DX009 (ip), vehicle: Klucel (hydroxypropylcellulose) (HPC)
[5] = dose: 200.0 mg/kg/injection, schedule: Q01DX009 (ip), vehicle: Klucel (hydroxypropylcellulose) (HPC)
[6] = dose: 12.5 mg/kg/injection, schedule: Q01DX009 (ip), vehicle: saline
[7] = dose: 12.5 mg/kg/injection, schedule: Q04DX003 (ip), vehicle: saline
[8] = dose: 25.0 mg/kg/injection, schedule: Q01DX009 (ip), vehicle: saline
[9] = dose: 25.0 mg/kg/injection, schedule: Q04DX003 (ip), vehicle: saline
[10] = dose: 50.0 mg/kg/injection, schedule: Q01DX009 (ip), vehicle: saline
[11] = dose: 50.0 mg/kg/injection, schedule: Q04DX003 (ip), vehicle: saline
[12] = dose: 75.0 mg/kg/injection, schedule: Q01DX001 (ip), vehicle: saline
[13] = dose: 100.0 mg/kg/injection, schedule: Q01DX009 (ip), vehicle: saline with Tween-80
[14] = dose: 200.0 mg/kg/injection, schedule: Q01DX009 (ip), vehicle: saline with Tween-80
[15] = dose: 400.0 mg/kg/injection, schedule: Q01DX009 (ip), vehicle: saline with Tween-80

Measured: T/C

BrCCOC1CCCCO1 (centres undefined)
inactive: dose: 25.0 mg/kg/injection, schedule: Q01DX005 (ip), vehicle: saline 105 % of control | dose: 50.0 mg/kg/injection, schedule: Q01DX005 (ip), vehicle: saline 117 % of control | dose: 100.0 mg/kg/injection, schedule: Q01DX005 (ip), vehicle: saline 107 % of control | dose: 200.0 mg/kg/injection, schedule: Q01DX005 (ip), vehicle: saline 105 % of control

Nc1nc2ncc(CNc3ccc(C(=O)NC(CCC(=O)O)C(=O)O)cc3)nc2c(=O)n1N (centres undefined)
inactive: dose: 100.0 mg/kg/injection, schedule: Q01DX001 (ip), vehicle: Klucel (hydroxypropylcellulose) (HPC) 98 % of control | dose: 200.0 mg/kg/injection, schedule: Q01DX001 (ip), vehicle: Klucel (hydroxypropylcellulose) (HPC) 101 % of control | dose: 400.0 mg/kg/injection, schedule: Q01DX001 (ip), vehicle: Klucel (hydroxypropylcellulose) (HPC) 98 % of control

N=C(OC1CCCCC1)N1CCOCC1
inactive: dose: 22.0 mg/kg/injection, schedule: Q01DX Z (ip), vehicle: saline 100 % of control | dose: 33.0 mg/kg/injection, schedule: Q01DX Z (ip), vehicle: saline 102 % of control | dose: 50.0 mg/kg/injection, schedule: Q01DX Z (ip), vehicle: saline 106 % of control

C1=Cc2ccccc2/C1=C/c1ccc(/C=C2\C=Cc3ccccc32)cc1
inactive: [1] 92 % of control | [2] 89 % of control | [3] 89 % of control

CCCCOC(=O)C1CCCCC1C(=O)OCCCC (centres undefined)
inactive: dose: 50.0 mg/kg/injection, schedule: Q01DX009 (ip), vehicle: Klucel (hydroxypropylcellulose) (HPC) 102 % of control | [4] 102 % of control | [5] 90 % of control

O=C(O)/C(=C/c1ccccc1)c1ccc2ccccc2c1Br
inactive: [4] 107 % of control | dose: 100.0 mg/kg/injection, schedule: Q04DX003 (ip), vehicle: other 100 % of control | [5] 95 % of control | dose: 200.0 mg/kg/injection, schedule: Q04DX003 (ip), vehicle: other 100 % of control | dose: 400.0 mg/kg/injection, schedule: Q01DX009 (ip), vehicle: Klucel (hydroxypropylcellulose) (HPC) 109 % of control | dose: 400.0 mg/kg/injection, schedule: Q04DX003 (ip), vehicle: other 95 % of control

O=C(Cl)C(c1ccccc1)c1ccccc1
inactive: dose: 100.0 mg/kg/injection, schedule: Q04DX003 (ip), vehicle: Klucel (hydroxypropylcellulose) (HPC) 108 % of control | dose: 200.0 mg/kg/injection, schedule: Q04DX003 (ip), vehicle: Klucel (hydroxypropylcellulose) (HPC) 98 % of control | dose: 400.0 mg/kg/injection, schedule: Q04DX003 (ip), vehicle: Klucel (hydroxypropylcellulose) (HPC) 96 % of control

CN(C)CCCN=C1Nc2ccccc2C(=NCCCN(C)C)Nc2ccccc21
inactive: [6] 97 % of control | [7] 102 % of control | [8] 97 % of control | [9] 98 % of control | [10] 94 % of control | [11] 104 % of control

O=C1OCC/C1=C1/CCOC1
inactive: [10] 91 % of control | dose: 100.0 mg/kg/injection, schedule: Q01DX009 (ip), vehicle: saline 102 % of control

CCN(CC)CCN1c2cc(C)ccc2Sc2ccc3ccccc3c21
inactive: dose: 100.0 mg/kg/injection, schedule: Q01DX001 (sc), vehicle: olive oil, sesame oil, peanut oil 101 % of control | dose: 100.0 mg/kg/injection, schedule: Q01DX009 (sc), vehicle: olive oil, sesame oil, peanut oil 101 % of control | dose: 100.0 mg/kg/injection, schedule: Q04DX003 (sc), vehicle: olive oil, sesame oil, peanut oil 110 % of control | dose: 200.0 mg/kg/injection, schedule: Q01DX001 (sc), vehicle: olive oil, sesame oil, peanut oil 100 % of control | dose: 200.0 mg/kg/injection, schedule: Q01DX009 (sc), vehicle: olive oil, sesame oil, peanut oil 118 % of control | dose: 200.0 mg/kg/injection, schedule: Q04DX003 (sc), vehicle: olive oil, sesame oil, peanut oil 110 % of control | dose: 400.0 mg/kg/injection, schedule: Q01DX001 (sc), vehicle: olive oil, sesame oil, peanut oil 101 % of control | dose: 400.0 mg/kg/injection, schedule: Q04DX003 (sc), vehicle: olive oil, sesame oil, peanut oil 113 % of control

CCCCC(C)C1(C)C(=O)NC(=O)NC1=O (centres undefined)
inactive: [12] 105 % of control | dose: 150.0 mg/kg/injection, schedule: Q01DX001 (ip), vehicle: saline 103 % of control | dose: 300.0 mg/kg/injection, schedule: Q01DX001 (ip), vehicle: saline 105 % of control

CC12CC(O)C(C=C1c1ccccc1)C2(C)C (centres undefined)
inactive: dose: 100.0 mg/kg/injection, schedule: Q04DX002 (ip), vehicle: other 86 % of control | dose: 200.0 mg/kg/injection, schedule: Q04DX002 (ip), vehicle: other 93 % of control | dose: 400.0 mg/kg/injection, schedule: Q04DX002 (ip), vehicle: other 90 % of control

Nc1nc(N)c(CCCOc2ccc(NC(=O)c3cccc(S(=O)OF)c3)cc2)c(N)n1 (centres undefined)
inactive: dose: 0.8 mg/kg/injection, schedule: Q01DX015 (ip), vehicle: saline 97 % of control | dose: 4.0 mg/kg/injection, schedule: Q01DX015 (ip), vehicle: saline 97 % of control | dose: 20.0 mg/kg/injection, schedule: Q01DX015 (ip), vehicle: saline 95 % of control | dose: 100.0 mg/kg/injection, schedule: Q01DX015 (ip), vehicle: saline 106 % of control | dose: 133.0 mg/kg/injection, schedule: Q01DX015 (ip), vehicle: saline 91 % of control

CCCCCCCCCCCCCCCCS(=O)(=O)c1ccc(S(=O)(=O)N/N=c2/sc3ccc(S(=O)(=O)O)cc3n2C)cc1C(=O)O
inactive: dose: 50.0 mg/kg/injection, schedule: Q01DX009 (ip), vehicle: saline with Tween-80 97 % of control | [13] 94 % of control

CNC(=O)C(c1ccccc1)C(F)(F)F (centres undefined)
inactive: dose: 100.0 mg/kg/injection, schedule: Q01DX001 (ip), vehicle: saline with Tween-80 97 % of control | dose: 200.0 mg/kg/injection, schedule: Q01DX001 (ip), vehicle: saline with Tween-80 109 % of control | dose: 400.0 mg/kg/injection, schedule: Q01DX001 (ip), vehicle: saline with Tween-80 105 % of control

O=c1[nH]c(=O)n(CC(O)c2ccc(Cl)s2)cc1F (centres undefined)
inactive: [13] 100 % of control | [1] 100 % of control | [14] 101 % of control | [2] 96 % of control | [15] 95 % of control | [3] 97 % of control

COCC(CNO)OC(=O)c1ccc(N)cc1 (centres undefined)
inactive: dose: 55.0 mg/kg/injection, schedule: Q01DX Z (ip), vehicle: saline 89 % of control | dose: 125.0 mg/kg/injection, schedule: Q01DX Z (ip), vehicle: saline 100 % of control

CCSP(N)(=O)c1ccccc1 (centres undefined)
inactive: [12] 101 % of control

Oc1ccccc1C1=NCCN1
inactive: dose: 50.0 mg/kg/injection, schedule: Q04DX002 (ip), vehicle: Klucel (hydroxypropylcellulose) (HPC) 102 % of control | dose: 100.0 mg/kg/injection, schedule: Q04DX002 (ip), vehicle: Klucel (hydroxypropylcellulose) (HPC) 95 % of control | dose: 200.0 mg/kg/injection, schedule: Q04DX002 (ip), vehicle: Klucel (hydroxypropylcellulose) (HPC) 91 % of control

O=C(O)CCN(Cc1ccccc1)Cc1ccccc1
inactive: [13] 101 % of control | [1] 108 % of control | [14] 98 % of control | [2] 88 % of control | [15] 98 % of control | [3] 104 % of control

CC(C)c1ccc(C(=O)CCCCl)cc1
inactive: [1] 97 % of control | [2] 102 % of control | [3] 92 % of control

CC(C)(C)C([NH-])=O.CC(C)(C)C([NH-])=O.[Cl][Pt+2][Cl]
inactive: dose: 6.25 mg/kg/injection, schedule: Q01DX009 (ip), vehicle: saline 86 % of control | [6] 94 % of control | [7] 116 % of control | [8] 101 % of control | [9] 102 % of control | [11] 109 % of control

CC(=O)c1cccc(NC(=O)c2ccc(F)cc2)c1
inactive: [13] 100 % of control | [14] 98 % of control | [15] 88 % of control

CC1CS(=O)(=O)O1 (centres undefined)
inactive: dose: 100.0 mg/kg/injection, schedule: Q04DX002 (ip), vehicle: saline with Tween-80 114 % of control | dose: 200.0 mg/kg/injection, schedule: Q04DX002 (ip), vehicle: saline with Tween-80 105 % of control
